Reference: patent publication US20230027066A1 (Urovant Sciences GmbH, priority 2019, published 2023)

Tests used:
Format in all cases: in vivo, human
[1] = ABPM study, in-clinic vital signs; settings: SAF; for In-clinic SBP change from baseline ≥5, subjects / In-clinic SBP change from baseline ≥10, subjects / In-clinic SBP change from baseline ≥15, subjects: Baseline to End of Treatment; for In-clinic vital signs change from baseline ≥5, subjects / In-clinic vital signs change from baseline ≥10, subjects / In-clinic vital signs change from baseline ≥15, subjects: parameter not given (Table 111)
Procedure: Safety was evaluated by assessment of clinical laboratory tests, physical examinations, and vital signs measurements from office visits at various time points during the study, and by the documentation of AEs.
Tables 106, 107, and 108 show the changes to in-clinic measurements of systolic blood pressure, diastolic blood pressure, and heart rate over the treatment period.
For subjects with a body weight of at least about 65.4 kg, there was no difference between treatment and placebo in the number of subjects with a ≥5, ≥10, or ≥15 mm Hg increase in systolic blood pressure. The same was true for subjects over the age of 66.

[2] = Phase 1 multiple-dose study in healthy subjects, maximum MA4 heart rate; settings: for Maximum MA4 HR (maximum change from baseline in moving average of heart rate over 4 hours postdose), LS mean (90% CI) / Maximum MA4 HR, difference from placebo (90% CI): Day 14
Procedure: More intensive assessments of heart rate and blood pressure were performed in healthy volunteers in several Phase 1 studies. […] Doses ranged from 25 to 400 mg once daily for 7 to 28 days depending on the cohort. Least squares mean and 90% confidence intervals of maximum change from baseline in moving average of heart rate over 4 hours postdose (MA4 HR) are presented in Table 7.

[3] = vibegron exposure in special populations (renal impairment, CYP3A/P-gp inhibitor, elderly, females)
[4] = subgroup Age <= 75th percentile (66 years)
[5] = subgroup Age > 75th percentile (66 years)
[6] = subgroup Pre-existing hypertension: NO
[7] = subgroup Pre-existing hypertension: YES
[8] = subgroup eGFR <= 25th percentile (72 mL/min/1.73 m^2)
[9] = subgroup eGFR > 25th percentile (72 mL/min/1.73 m^2)
[10] = Over 28 Days on 3 Consecutive Visits
[11] = Over 28 Days on 3 Consecutive Visits, subgroup Body Weight <= 25th Percentile (65.4 kg)
[12] = Over 28 Days on 3 Consecutive Visits, subgroup Body Weight > 25th Percentile (65.4 kg)
[13] = Over 28 Days on 3 Consecutive Visits, subgroup eGFR <= 25th Percentile (72 mL/min/1.73 m^2)
[14] = Over 28 Days on 3 Consecutive Visits, subgroup eGFR > 25th Percentile (72 mL/min/1.73 m^2)

SMILES: O=C(Nc1ccc(C[C@@H]2CC[C@H]([C@H](O)c3ccccc3)N2)cc1)[C@@H]1CCc2nccc(=O)n21 [Vibegron, (6S)-N-[4-[[(2S,5R)−5-[(R)-hydroxy(phenyl)methyl]pyrrolidin−2-yl]methyl]phenyl]−4-oxo−7,8-dihydro−6H-pyrrolo[1,2-a]pyrimidine−6-carboxamide]
- In-clinic SBP change from baseline ≥5, subjects [1, 4]: 29 (34.9) n (%)
- In-clinic SBP change from baseline ≥10, subjects [1, 4]: 18 (21.7) n (%)
- In-clinic SBP change from baseline ≥15, subjects [1, 4]: 10 (12.0) n (%)
- In-clinic SBP change from baseline ≥5, subjects [1, 5]: 7 (31.8) n (%)
- In-clinic SBP change from baseline ≥10, subjects [1, 5]: 4 (18.2) n (%)
- In-clinic SBP change from baseline ≥15, subjects [1, 5]: 3 (13.6) n (%)
- In-clinic SBP change from baseline ≥5, subjects [1, 6]: 22 (33.3) n (%)
- In-clinic SBP change from baseline ≥10, subjects [1, 6]: 14 (21.2) n (%)
- In-clinic SBP change from baseline ≥15, subjects [1, 6]: 9 (13.6) n (%)
- In-clinic SBP change from baseline ≥5, subjects [1, 7]: 14 (35.9) n (%)
- In-clinic SBP change from baseline ≥10, subjects [1, 7]: 8 (20.5) n (%)
- In-clinic SBP change from baseline ≥15, subjects [1, 7]: 4 (10.3) n (%)
- In-clinic SBP change from baseline ≥5, subjects [1, 8]: 13 (43.3) n (%)
- In-clinic SBP change from baseline ≥10, subjects [1, 8]: 9 (30.0) n (%)
- In-clinic SBP change from baseline ≥15, subjects [1, 8]: 6 (20.0) n (%)
- In-clinic SBP change from baseline ≥5, subjects [1, 9]: 23 (30.7) n (%)
- In-clinic SBP change from baseline ≥10, subjects [1, 9]: 13 (17.3) n (%)
- In-clinic SBP change from baseline ≥15, subjects [1, 9]: 7 (9.3) n (%)
- In-clinic DBP (mmHg) change from baseline ≥5, subjects [1, 10]: 5 (5.1) n (%)
- In-clinic DBP (mmHg) change from baseline ≥10, subjects [1, 10]: 3 (3.1) n (%)
- In-clinic DBP (mmHg) change from baseline ≥15, subjects [1, 10]: 0 n (%)
- In-clinic HR (bpm) change from baseline ≥5, subjects [1, 10]: 6 (6.1) n (%)
- In-clinic HR (bpm) change from baseline ≥10, subjects [1, 10]: 3 (3.1) n (%)
- In-clinic HR (bpm) change from baseline ≥15, subjects [1, 10]: 0 n (%)
- In-clinic SBP (mmHg) change from baseline ≥5, subjects [1, 10]: 14 (14.3) n (%)
- In-clinic SBP (mmHg) change from baseline ≥10, subjects [1, 10]: 6 (6.1) n (%)
- In-clinic SBP (mmHg) change from baseline ≥15, subjects [1, 10]: 0 n (%)
- In-clinic vital signs change from baseline ≥5, subjects [1, 11]: 6 (23.1) n (%)
- In-clinic vital signs change from baseline ≥10, subjects [1, 11]: 2 (7.7) n (%)
- In-clinic vital signs change from baseline ≥15, subjects [1, 11]: 0 n (%)
- In-clinic vital signs change from baseline ≥5, subjects [1, 12]: 8 (11.1) n (%)
- In-clinic vital signs change from baseline ≥10, subjects [1, 12]: 4 (5.6) n (%)
- In-clinic vital signs change from baseline ≥15, subjects [1, 12]: 0 n (%)
- In-clinic vital signs change from baseline ≥5, subjects [1, 13]: 3 (10.7) n (%)
- In-clinic vital signs change from baseline ≥10, subjects [1, 13]: 1 (3.6) n (%)
- In-clinic vital signs change from baseline ≥15, subjects [1, 13]: 0 n (%)
- In-clinic vital signs change from baseline ≥5, subjects [1, 14]: 11 (15.7) n (%)
- In-clinic vital signs change from baseline ≥10, subjects [1, 14]: 5 (7.1) n (%)
- In-clinic vital signs change from baseline ≥15, subjects [1, 14]: 0 n (%)
- Maximum MA4 HR (maximum change from baseline in moving average of heart rate over 4 hours postdose), LS mean (90% CI) ([2]; vibegron 25 mg once daily): 1.47 (−3.24, 6.17) bpm
- Maximum MA4 HR, difference from placebo (90% CI) ([2]; vibegron 25 mg once daily): −1.60 (−7.09, 3.88) bpm
- Maximum MA4 HR (maximum change from baseline in moving average of heart rate over 4 hours postdose), LS mean (90% CI) ([2]; vibegron 50 mg once daily): 1.50 (−2.79, 5.79) bpm
- Maximum MA4 HR, difference from placebo (90% CI) ([2]; vibegron 50 mg once daily): −1.57 (−6.70, 3.56) bpm
- maximum MA4 HR, difference from placebo ([2]; vibegron 100 mg): < 1 bpm
- Maximum MA4 HR (maximum change from baseline in moving average of heart rate over 4 hours postdose), LS mean (90% CI) ([2]; vibegron 100 mg once daily): 3.28 (−1.02, 7.57) bpm
- Maximum MA4 HR, difference from placebo (90% CI) ([2]; vibegron 100 mg once daily): 0.21 (−4.93, 5.34) bpm
- Maximum MA4 HR (maximum change from baseline in moving average of heart rate over 4 hours postdose), LS mean (90% CI) ([2]; vibegron 150 mg once daily): 3.17 (−1.13, 7.46) bpm
- Maximum MA4 HR, difference from placebo (90% CI) ([2]; vibegron 150 mg once daily): 0.10 (−5.04, 5.23) bpm
- Maximum MA4 HR (maximum change from baseline in moving average of heart rate over 4 hours postdose), LS mean (90% CI) ([2]; vibegron 200 mg once daily): 5.67 (0.96, 10.37) bpm
- Maximum MA4 HR, difference from placebo (90% CI) ([2]; vibegron 200 mg once daily): 2.60 (−2.89, 8.08) bpm
- Maximum MA4 HR (maximum change from baseline in moving average of heart rate over 4 hours postdose), LS mean (90% CI) ([2]; vibegron 300 mg once daily): 9.06 (4.76, 13.35) bpm
- Maximum MA4 HR, difference from placebo (90% CI) ([2]; vibegron 300 mg once daily): 5.98 (0.85, 11.12) bpm
- Maximum MA4 HR (maximum change from baseline in moving average of heart rate over 4 hours postdose), LS mean (90% CI) ([2]; vibegron 400 mg once daily): 10.33 (6.04, 14.63) bpm
- Maximum MA4 HR, difference from placebo (90% CI) ([2]; vibegron 400 mg once daily): 7.26 (2.13, 12.39) bpm
- higher Cmax in elderly and females than healthy young males ([3]; elderly and females): 50-70%
- mean increase in AUC in subjects with moderate renal impairment vs normal renal function ([3]; moderate renal impairment): 1.6 fold
